Source: patent US9206159B2, “Piperazine-piperidine compounds as hepatitis C virus inhibitors” (Theravance Biopharma R&D IP, LLC, priority 2012, dated 2015)

Each molecule was assayed on HCV genotype 1b replicon cell line (assay: HCV Genotype 1b Replicon Assay). Details: Huh7 cell background, Renilla luciferase readout, 48 hours.
Assay type: cell-based, hepatitis C virus
Text: Assay 1: HCV Genotype 1b Replicon Assay
The HCV genotype 1b replicon cell line was obtained from Apath LLC (Brooklyn, N.Y.) (APC144; Huh7 cell background). This subgenomic replicon contains the N-terminus of the HCV core protein fused to the neomycin-resistance selectable marker. The EMCV IRES lies downstream and drives expression of humanized Renilla luciferase fused to the non-structural proteins NS3-NS5B. This cell line was used to determine compound potency using the luciferase activity readout as a measurement of compound inhibition of replicon levels.
Cells were grown at 37° C. in a 5% CO2 humidified incubator in DMEM (Invitrogen) with 10% FBS (HyClone), 1×NEAA (Invitrogen), 1× Pen-Strep (Invitrogen), and 500 μg/mL G418 (Invitrogen). On day 1 of the assay, cells were plated at 10,000 cells/well in white 96-well tissue culture plates (Costar) in 200 μL media lacking G418. Four hours later, once the cells have adhered, the media was removed and replaced with media (no G418) containing dose-responses of test compounds. Compounds were initially diluted in DMSO and then diluted another 200× in media to bring the final DMSO concentration down to 0.5%. The cells were incubated with test compounds for 48 hours. At the end of the incubation period, media and compound were removed from the plates and the luciferase activity was determined using Promega Renilla-Glo reagents.
To analyze the data, the luciferase activity was plotted vs. the compound concentration, and EC50 values were determined from a 4-parameter robust fit model with the GraphPad Prism software package (GraphPad Software, Inc., San Diego, Calif.). Results are expressed as the negative decadic logarithm of the EC50 value, pEC50.
Test compounds having a higher pEC50 value in this assay show greater inhibition of HCV genotype 1b replication.

Compound	Genotype 1b (pEC50 class)
COC(=O)N[C@H](C(=O)N1CCC[C@H]1c1nc(-c2ccc(-c3ccc(NC(=O)N4CCC(N5CCN(C(=O)[C@H]6CC6(C)C)CC5)CC4)cc3)cc2)c[nH]1)C(C)C [Example 3-2]	D (D represents pEC50>10 (EC50<0.1 nM))
COC(=O)N[C@H](C(=O)N1CCC[C@H]1c1nc(-c2ccc(-c3ccc(NC(=O)N4CCN(C5CCN(C(=O)C(C)(C)CO)CC5)CC4)cc3OC(F)(F)F)cc2)c[nH]1)C(C)C [Example 1-17]	D (D represents pEC50>10 (EC50<0.1 nM))
COC(=O)N[C@H](C(=O)N1C[C@@H](C)C[C@H]1c1nc(-c2ccc(-c3cc(F)c(NC(=O)N4CCN(C5CCN(C(=O)[C@H]6CC6(C)C)CC5)CC4)cc3OC(F)(F)F)cc2)c[nH]1)C(C)C [Example 2-16]	D (D represents pEC50>10 (EC50<0.1 nM))

These molecules were tested on HCV genotype 1a replicon cell line (assay: HCV Genotype 1a Replicon Assay). Details: Hepatitis C virus, Huh7.5 cell background, NS3-specific protease activity in lysates, 48 or 72 hours, read-out: Genotype 1a (pEC50 class) (converted).
Assay type: cell-based, hepatitis C virus
Procedure, shortened: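 Huh7.5-based subgenomic genotype 1a replicon cells, plated without G418, exposed to compound dose-responses (0.5% DMSO final) for 48 or 72 h at 37 °C. Lysate NS3/4a protease activity read with 15 μM FRET substrate, 20 min at 37 °C (Ex 340/Em 509 nm); EC50 from 4-parameter fit.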

Compound	EC50 [nM]
COC(=O)N[C@H](C(=O)N1C[C@@H](C)C[C@H]1c1nc2c(ccc3cc(-c4ccc(NC(=O)N5CCN(C6CCN(C(=O)C7CC7)CC6)CC5)cc4OC(F)(F)F)ccc32)[nH]1)C1CCOCC1 [Example 7-4]	< 0.1
COC(=O)N[C@H](C(=O)N1C[C@@H](OC)C[C@H]1c1nc(-c2ccc(-c3ccc(NC(=O)N4CCN(C5CCN(C(=O)C(C)(C)CO)CC5)CC4)cc3OC(F)(F)F)cc2)c[nH]1)C(C)C [Example 5-5]	0.1 to 1
COC(=O)N[C@H](C(=O)N1[C@@H](C)CC[C@H]1c1nc(-c2ccc(-c3ccc(NC(=O)N4CCN(C5CCN(C(=O)C(C)(C)C)CC5)CC4)cc3OC(F)(F)F)cc2)c[nH]1)C(C)C [Example 8-3]	0.1 to 1
COC(=O)N[C@H](C(=O)N1C[C@@H](C)C[C@H]1c1nc2c(ccc3cc(-c4ccc(NC(=O)N5CCN(C6CCN(C(=O)C(C)(C)C)CC6)CC5)cc4OC(F)(F)F)ccc32)[nH]1)C(C)C [Example 15, [(S)-1-((2S,4S)-2-{7-[4-({4-[1-(2,2-Dimethyl-propionyl)-piperidin-4-yl]-piperazine-1-carbonyl}-amino)-2-trifluoromethoxy-phenyl]-3H-naphtho[1,2-d]imidazol-2-yl}-4-methyl-pyrrolidine-1-carbonyl)-2-methyl-propyl]-carbamic acid methyl ester]	< 0.1
COC(=O)N[C@H](C(=O)N1C[C@@H](C)C[C@H]1c1nc(-c2ccc(-c3cc(Cl)c(NC(=O)N4CCN(C5CCN(C(=O)C6CC6(Cl)Cl)CC5)CC4)cc3OC(F)(F)F)cc2)c[nH]1)C(C)C (stereo partly drawn) [Example 2, [(S)-1-((S)-2-{4-[5′-Chloro-4′-({4-[1-(2,2-dichloro-cyclopropanecarbonyl)-piperidin-4-yl]-piperazine-1-carbonyl}-amino)-2′-trifluoromethoxy-biphenyl-4-yl]-1H-imidazol-2-yl}-4-methyl-pyrrolidine-1-carbonyl)-2-methyl-propyl]-carbamic acid methyl ester]	1 to 10
COC(=O)N[C@H](C(=O)N1C[C@@H](C)C[C@H]1c1nc(-c2ccc(-c3cc(Cl)c(NC(=O)N4CCN(C5CCN(C(=O)C6CC6(F)F)CC5)CC4)cc3OC(F)(F)F)cc2)c[nH]1)C(C)C (stereo partly drawn) [Example 5]	0.1 to 1
COC(=O)N[C@H](C(=O)N1C[C@@H](OC)C[C@H]1c1nc(-c2ccc(-c3ccc(NC(=O)N4CCC(N5CCN(C(=O)C6CCC6(C)C)CC5)CC4)cc3OC(F)(F)F)cc2)c[nH]1)C(C)C (stereo partly drawn) [Example 14, [(S)-1-((2S,4S)-2-{4-[4′-({4-[4-(2,2-Dimethyl-cyclobutanecarbonyl)-piperazin-1-yl]-piperidine-1-carbonyl}-amino)-2′-trifluoromethoxy-biphenyl-4-yl]-1H-imidazol-2-yl}-4-methoxy-pyrrolidine-1-carbonyl)-2-methyl-propyl]-carbamic acid methyl ester]	0.1 to 1

Same assay, conditions: Huh7.5 cell background, NS3-specific protease activity in lysates, 48 or 72 hours

Compound	Genotype 1a (pEC50 class)
COC(=O)N[C@H](C(=O)N1CCC[C@H]1c1nc(-c2ccc(-c3ccc(NC(=O)N4CCC(N5CCN(C(=O)[C@H]6CC6(C)C)CC5)CC4)cc3)cc2)c[nH]1)C(C)C [Example 3-2]	B (B represents pEC50 between 8 and 9 (EC50 between 1 and 10 nM))
COC(=O)N[C@H](C(=O)N1CCC[C@H]1c1nc(-c2ccc(-c3ccc(NC(=O)N4CCN(C5CCN(C(=O)C(C)(C)CO)CC5)CC4)cc3OC(F)(F)F)cc2)c[nH]1)C(C)C [Example 1-17]	C (C represents pEC50 between and 9 and about 10, (EC50 between 1 nM and 0.1 nM))
COC(=O)N[C@H](C(=O)N1C[C@@H](C)C[C@H]1c1nc(-c2ccc(-c3cc(F)c(NC(=O)N4CCN(C5CCN(C(=O)[C@H]6CC6(C)C)CC5)CC4)cc3OC(F)(F)F)cc2)c[nH]1)C(C)C [Example 2-16]	D (D represents pEC50>10 (EC50<0.1 nM))
COC(=O)N[C@H](C(=O)N1C[C@@H](C)C[C@H]1c1nc(-c2ccc(-c3cc(Cl)c(NC(=O)N4CCC(N5CCN(C(=O)OC(C)(C)C)CC5)CC4)cc3OC(F)(F)F)cc2)c[nH]1)C(C)C [Example 4-12]	B (B represents pEC50 between 8 and 9 (EC50 between 1 and 10 nM))
CNC(=O)N1CCN(C2CCN(C(=O)Nc3ccc(-c4ccc(-c5c[nH]c([C@@H]6CCCN6C(=O)[C@@H](NC(=O)OC)C(C)C)n5)cc4)cc3)CC2)CC1 [Example 3-5]	A (A represents a pEC50 value between 6 and 8 (EC50 between 1 μM and 10 nM))
COC(=O)N[C@H](C(=O)N1C[C@@H](C)C[C@H]1c1nc(-c2ccc(-c3cc(F)c(NC(=O)N4CCN(C5CCN(C(=O)C6CC6(Cl)Cl)CC5)CC4)cc3OC(F)(F)F)cc2)c[nH]1)C(C)C (stereo partly drawn) [Example 2-15]	C (C represents pEC50 between and 9 and about 10, (EC50 between 1 nM and 0.1 nM))
COC(=O)N[C@H](C(=O)N1CCC[C@H]1c1nc(-c2ccc(-c3ccc(NC(=O)N4CCN(C5CCN(C(=O)C6CC7CCC6C7)CC5)CC4)cc3OC(F)(F)F)cc2)c[nH]1)C(C)C (stereo partly drawn) [Example 1-11]	C (C represents pEC50 between and 9 and about 10, (EC50 between 1 nM and 0.1 nM))
COC(=O)NC(C(=O)N1CCCC1c1nc(-c2ccc(-c3ccc(NC(=O)N4CCN(C5CCN(C(=O)C6CC6(C)C)CC5)C(CO)C4)cc3OC(F)(F)F)cc2)c[nH]1)C(C)C (stereo not drawn) [Example 1-45]	B (B represents pEC50 between 8 and 9 (EC50 between 1 and 10 nM))
COC(=O)N[C@H](C(=O)N1C[C@@H](C)C[C@H]1c1nc(-c2ccc(-c3cc(F)c(NC(=O)N4CCN(C5CCN(C(=O)OC(C)(C)C)CC5)CC4)cc3OC(F)(F)F)cc2)c[nH]1)C(C)C [Example 2-2]	D (D represents pEC50>10 (EC50<0.1 nM))
COC(=O)N[C@H](C(=O)N1C[C@@H](C)C[C@H]1c1nc(-c2ccc(-c3cc(Cl)c(NC(=O)N4CCC(N5CCN(C(=O)C(C)(C)C)[C@@H](C)C5)CC4)cc3OC(F)(F)F)cc2)c[nH]1)C(C)C [Example 4-3]	B (B represents pEC50 between 8 and 9 (EC50 between 1 and 10 nM))
CNC(=O)N1CCC(N2CCN(C(=O)Nc3ccc(-c4ccc(-c5c[nH]c(C6CCCN6C(=O)C(NC(=O)OC)C(C)C)n5)cc4)c(OC(F)(F)F)c3)CC2CO)CC1 (stereo not drawn) [Example 1-43]	A (A represents a pEC50 value between 6 and 8 (EC50 between 1 μM and 10 nM))
COC(=O)N[C@H](C(=O)N1C[C@@H](C)C[C@H]1c1nc(-c2ccc(-c3cc(Cl)c(NC(=O)N4CCC(N5CCN(C(=O)[C@H]6CC6(C)C)[C@@H](C)C5)CC4)cc3OC(F)(F)F)cc2)c[nH]1)C(C)C [Example 4-2]	C (C represents pEC50 between and 9 and about 10, (EC50 between 1 nM and 0.1 nM))
COC(=O)NC(C(=O)N1CCCC1c1nc(-c2ccc(-c3ccc(NC(=O)N4CCN(C5CCN(C(=O)C(C)(C)C)CC5)C(CO)C4)cc3OC(F)(F)F)cc2)c[nH]1)C(C)C (stereo not drawn) [Example 1-42]	B (B represents pEC50 between 8 and 9 (EC50 between 1 and 10 nM))
COC(=O)N[C@H](C(=O)N1CCC[C@H]1c1nc(-c2ccc(-c3ccc(NC(=O)N4CCN(C5CCN(C(=O)[C@H]6CC6(C)C)CC5)CC4)cc3)cc2)c[nH]1)C(C)C [Example 1-3]	C (C represents pEC50 between and 9 and about 10, (EC50 between 1 nM and 0.1 nM))
COC(=O)N[C@H](C(=O)N1CCC[C@H]1c1nc(-c2ccc(-c3cc(Cl)c(NC(=O)N4CCN(C5CCN(C(=O)C6CC6)CC5)CC4)cc3OC(F)(F)F)cc2)c[nH]1)C(C)C [Example 1-33]	C (C represents pEC50 between and 9 and about 10, (EC50 between 1 nM and 0.1 nM))
COC(=O)N[C@H](C(=O)N1C[C@@H](C)C[C@H]1c1nc(-c2ccc(-c3ccc(NC(=O)N4CCN(C5CCN(C(=O)[C@H]6CC6(C)C)CC5)CC4)cc3OC(F)(F)F)cc2)c[nH]1)C(C)C [Example 2-11]	D (D represents pEC50>10 (EC50<0.1 nM))
COC(=O)N[C@H](C(=O)N1CCC[C@H]1c1nc(-c2ccc(-c3ccc(NC(=O)N4CCN(C5CCN(C(=O)OCc6ccccc6)CC5)CC4)cc3)cc2)c[nH]1)C(C)C [Example 1-2]	B (B represents pEC50 between 8 and 9 (EC50 between 1 and 10 nM))
